In PubChem BioAssay AID2305 (GlaxoSmithKline (GSK), 2010):
pIC50: −log10 of the molar value.

tested on: P. falciparum 3D7 growth, pLDH absorbance; test: blood-stage malaria parasite growth potency – strain 3D7, dose response (AID 2305)

`c1cc(COc2ccc(C3=NCCN3)cc2)nc(COc2ccc(C3=NCCN3)cc2)c1` and `COc1ccc(-c2ccc(NC(=O)c3ccc(Cl)cc3)cc2)cc1CN1CCNCC1` are within 0.2 log units of each other in pIC50: 6.82 for the first, 6.89 for the second.

`Cc1cc(C(=O)NC2CCN(Cc3ccccc3)CC2)ccc1-c1nc2ccc(C(F)(F)F)cc2[nH]1` and `O=C(Nc1ccc(-c2cccc(-c3nc4ccc(C(F)(F)F)cc4[nH]3)c2)cc1)c1cccnc1` are within 0.2 log units of each other in pIC50: 6.05 for the first, 6.14 for the second.

First: COc1cc2c(cc1C(F)(F)F)N(C(=O)Nc1cc(F)c(F)c(-c3cccnc3)c1)CC2
Second: CCOc1ccc(C(=O)Nc2cc3c(c(C(F)(F)F)c2)CCNC3)cc1Cl
The pIC50 of the first is 0.23 log units higher: 6.20 for the first, 5.97 for the second. The first is the more potent here.

`NCc1cccc(-c2cccc(CN(C(=O)Nc3ccccc3)C3CCN(Cc4ccccc4)CC3)c2)c1` and `O=C(N[C@@H]1C[C@H]1c1ccccc1)N(CCCn1ccnc1)Cc1csc(-c2ccc(CNCc3ccccc3)cc2)n1` are within 0.2 log units of each other in pIC50: 6.08 for the first, 6.07 for the second.

`CN(C)c1nc(NN=Cc2cc(Cl)ccc2O)nc(Nc2ccc(F)cc2)n1` and `O=[N+]([O-])c1cc2c(cc1C=NNc1nc(Nc3ccccc3)nc(Nc3ccccc3)n1)OCO2` are within 0.2 log units of each other in pIC50: 6.08 for the first, 6.06 for the second.

`CCCN(Cc1ccc(OCC)cc1)Cc1cc(=O)c2cc(Cl)ccc2[nH]1` and `O=c1cc(NCCCNCc2cc3ccc(Br)cc3s2)[nH]c2ccccc12` are within 0.2 log units of each other in pIC50: 5.90 for the first, 6.00 for the second.

First: Cc1cc(Nc2ccc(C)c(Cl)c2)n2ncnc2n1
Second: COc1cccc(Nc2nc(N)c3ccccc3n2)c1
The pIC50 of the first is 0.23 log units higher: 6.26 for the first, 6.03 for the second. The first is the more potent here.

`O=C(CC(=O)Nc1cc(Cl)cc(Cl)c1)Nc1cc(Cl)cc(Cl)c1` and `CC(C)c1cc(N)c2cc(NC(=O)COCC(=O)Nc3ccc4nc(C(C)C)cc(N)c4c3)ccc2n1` are within 0.2 log units of each other in pIC50: 6.80 for the first, 6.66 for the second.

Going from `CNCCCN(C)C(=O)Oc1c(Br)c(C)nc(C)c1-c1ccc(Oc2ccc(OC(F)(F)F)cc2)cc1` to `Cn1nc(C(F)(F)F)c(-c2ccc(F)cc2)c1NC(=O)Nc1ccc(F)cc1`, the pIC50 falls from 6.41 to 6.12 (0.29 log units). The first is the more potent here.

`Cc1nnc2c(NC(=O)NC3CCCC3)cc3ccc(-c4cccc(CN5CCN(C)CC5)c4)cc3n12` and `CC(C)(C)c1ccc(NC(=O)c2cccc(CN3CCCN(CC4CCCCC4)CC3)c2)cc1` are within 0.2 log units of each other in pIC50: 6.04 for the first, 6.13 for the second.

`CCn1cc(C(=O)O)c(=O)c2cc(F)c(N3CCN(S(=O)(=O)c4ccc(N)cc4)CC3)cc21` and `Cc1ccc(O)c(-c2cc(C(=O)Nc3ccc(S(=O)(=O)N4CCCCC4)cc3)[nH]n2)c1` are within 0.2 log units of each other in pIC50: 6.04 for the first, 6.09 for the second.

`Cc1ccccc1NC(=O)C1CSCN1C(=O)OCc1ccccc1` (stereo unspecified) and `Cc1c(C(=O)N(C)C)sc2c1c(=O)n(Cc1ccccc1)c(=O)n2CC(=O)Nc1ccccc1F` are within 0.2 log units of each other in pIC50: 6.01 for the first, 6.18 for the second.

Compared with `Cc1cc2c(/C=C/C(=O)NC3CCC(CCN4CCc5ccc(C#N)cc5CC4)CC3)cccc2[nH]1` (stereo unspecified), `CN1CCC(N2CCN(CCOc3cc(NC(=O)/C=C/c4ccccc4Cl)ccc3Br)CC2)CC1` is 0.36 log units higher in pIC50: 6.08 for the first, 6.44 for the second. The second is the more potent here.

First: CC(=O)Nc1ccc(CN2CCC(NC(=O)c3ccc(-c4ccc(N(C)C)cc4)s3)CC2)cc1
Second: Cc1ccc(C2CCN(CCCCNC(=O)c3ccc(NC(=O)c4ccc(Cl)cc4)cc3)CC2)c(OCC(F)(F)F)c1
The pIC50 of the first is 0.49 log units lower: 6.06 for the first, 6.55 for the second.

`CCCCCCCCCCN1C(=O)C2C(CCCCNC(C)=O)NC3(C(=O)N(Cc4ccc(C(C)(C)C)cc4)c4ccccc43)C2C1=O` (stereo unspecified) and `CCCCCCN1CCC(NCc2ccc(OCCN3CCCC3)cc2)CC1` are within 0.2 log units of each other in pIC50: 6.00 for the first, 6.14 for the second.

`CN1CCN(c2cc(NC(=O)Nc3ccc(-c4ccncc4)c(Cl)c3)ccc2Br)CC1` and `CN1CCN(c2cc(NC(=O)Nc3cccc(Cl)c3Cl)ccc2Cl)CC1` are within 0.2 log units of each other in pIC50: 6.05 for the first, 6.14 for the second.

`CC(CN1CCN(C)CC1)C(=O)Nc1ccc(-c2csc(-c3nc4ccccc4[nH]3)c2)cc1` (stereo unspecified) and `COc1ccc2nc(-c3cc(-c4ccc(NC(=O)C(C)C)cc4)cnc3N)[nH]c2c1` are within 0.2 log units of each other in pIC50: 6.08 for the first, 6.25 for the second.

`NC(N)=NC(=O)Nc1cc(F)c(Cl)c(Cl)c1` and `O=C(Nc1ccc(Cl)cc1C(=O)Nc1cccc(F)c1)c1ccc([N+](=O)[O-])cc1` are within 0.2 log units of each other in pIC50: 6.30 for the first, 6.43 for the second.

`CCCCSc1nc2c(c(=O)n1Cc1ccco1)C1(CCCCC1)Cc1ccccc1-2` and `N=c1n(CCN2CCCCC2)c2ccccc2n1CC(O)c1cccc(Br)c1` (stereo unspecified) are within 0.2 log units of each other in pIC50: 6.02 for the first, 5.94 for the second.

`CC(O)C1CCCCN1C(=O)c1ccc(-c2cccc(-c3nc4ccc(F)cc4[nH]3)c2)cc1` (stereo unspecified) and `CC(C)NCc1cccc(-c2cccc(-c3nc4ccccc4[nH]3)c2)c1` are within 0.2 log units of each other in pIC50: 6.27 for the first, 6.10 for the second.

`CC(C)(C)CC(C)(C)c1ccc(O)c(C(=O)Nc2ccc([N+](=O)[O-])cc2)c1` and `CN(C(=O)c1ccc(Br)cc1)c1ccccc1[N+](=O)[O-]` are within 0.2 log units of each other in pIC50: 6.11 for the first, 6.03 for the second.

`Clc1ccc2c(NCc3ccccc3)ccnc2c1` and `c1ccc(CNc2cc(-c3ccccn3)nc(-c3ccccn3)n2)cc1` are within 0.2 log units of each other in pIC50: 6.47 for the first, 6.52 for the second.

First: O=C(Nc1ccc(Cl)cc1)Nc1cccc(-c2cccc(-c3nc4ccccc4[nH]3)c2)c1
Second: Cc1ccc(NC(=O)Nc2ccccc2F)cc1-c1ccc(C(=O)Nc2ccncc2)cc1
The pIC50 of the first is 0.64 log units higher: 6.89 for the first, 6.25 for the second. The first is the more potent here.

First: CCC1(C)CC(CCNCc2ccccc2O)(c2ccc(C)cc2)CCO1 (stereo unspecified)
Second: CCC1(CC)CN(c2ccccc2)c2ccc(O)cc2S(=O)(=O)C1CC(C)C (stereo unspecified)
The pIC50 of the first is 1.00 log units higher: 7.40 for the first, 6.40 for the second. The first is the more potent here.

Going from `Cc1cc(N2CCC(NS(=O)(=O)c3ccccc3)CC2)nc(Nc2cccc(C#N)c2)n1` to `Cc1cc(N[C@@H](CC(C)C)C(=O)Nc2ccccc2)nc(Nc2ccccc2)n1`, the pIC50 rises from 5.87 to 6.14 (0.27 log units).

First: O=c1cc(NCCCNC2CCOc3c(Cl)cccc32)[nH]c2ccccc12 (stereo unspecified)
Second: Oc1cccc(Nc2nc(NCc3ccco3)c3ccccc3n2)c1
The pIC50 of the first is 0.31 log units lower: 6.08 for the first, 6.39 for the second. The second is the more potent here.

First: CCCCCn1c(Sc2ccc(C#N)c([N+](=O)[O-])c2)nnc1-c1ccc(OC)cc1
Second: COc1ccc(C(=O)[C@H]2C[C@@H]2CN2CC=C(c3c[nH]c4ccc(OC)nc34)CC2)cc1
The pIC50 of the first is 0.38 log units lower: 5.94 for the first, 6.32 for the second.

First: Fc1cc(Cl)ccc1Nc1ccnc2cc(-c3ccc(CN4CCOCC4)o3)ccc12
Second: CN(C)CCNCc1ccc(-c2ccc3c(Nc4ccc(Cl)cc4F)ccnc3c2)o1
The pIC50 of the first is 0.49 log units lower: 6.19 for the first, 6.68 for the second. The second is the more potent here.

`CC(C)CNCc1ccc(OCc2cccc(COc3ccc(CNCC(C)C)cc3I)c2)c(I)c1` and `CCOc1cc(C(=O)N[C@@H](Cc2ccccc2)[C@H](O)CNCc2cc(OC)cc(OC)c2)cc(N2CCCS2(=O)=O)c1` are within 0.2 log units of each other in pIC50: 6.11 for the first, 6.12 for the second.

Going from `O=C(c1cccs1)N1N=C(c2cccs2)CC1c1cccc([N+](=O)[O-])c1` (stereo unspecified) to `CCOC(=O)c1c(-c2ccccc2)[nH]c2c(sc3ccccc32)c1=O`, the pIC50 rises from 6.09 to 6.43 (0.34 log units).

`CC(C)c1ncc(-c2ccncc2)c(C2CCC(CNC(=O)c3ccncc3)CC2)n1` (stereo unspecified) and `c1ccc(C2CCN(Cc3ccc(-c4c[nH]c5nc(NC6CCCC6)ncc45)cc3)CC2)cc1` are within 0.2 log units of each other in pIC50: 5.87 for the first, 6.00 for the second.

`COCCN(C(=O)Cc1cccs1)C(C(=O)NCc1ccc(OC)cc1)c1ccc(C(C)C)cc1` (stereo unspecified) and `CC(C)c1ccc(-c2noc(SCC(=O)N(C)c3ccc(F)cc3)n2)cc1` are within 0.2 log units of each other in pIC50: 6.08 for the first, 5.93 for the second.

`Cc1ccc(N)cc1-c1nc(NC2CC(C)(C)NC(C)(C)C2)nc2c1ccc(=O)n2-c1c(F)cccc1F` and `Fc1ccc(N(c2nc(-c3cc(F)cc(C(F)(F)F)c3)cs2)C2CCNCC2)cc1` are within 0.2 log units of each other in pIC50: 6.08 for the first, 6.02 for the second.

Going from `Cc1cc(N[C@@H](Cc2ccccc2)C(=O)Nc2ccccc2)nc(NCCc2cccnc2)n1` to `CN1CCN(CCCNCc2cccc(Nc3nccc(Nc4ccc(Oc5ccccc5)cc4)n3)c2)CC1`, the pIC50 rises from 5.87 to 6.12 (0.25 log units). The second is the more potent here.

`O=C(Cn1c(=O)oc2ccccc21)N1CCC(n2c(=O)n(CCCN3CCOCC3)c3ccccc32)CC1` and `COc1ccc2nccc(N3CCN(CCNCc4ccc5c(n4)NC(=O)CO5)CC3)c2n1` are within 0.2 log units of each other in pIC50: 6.11 for the first, 6.06 for the second.

`Cc1ccc(S(C)(=O)=O)cc1/C=C/C(=O)O` showed a pIC50 of 6.06.
